Values quoted from earlier work, collected in patent US6869622B2, “Composition for improving sleep quality and efficiency, and methods of preparing and using the composition” (Ancile Pharmaceuticals, Inc., priority 1999, dated 2005).
Read-outs that look alike come from different tables or passages of the source.

Assays:
[1] = test system: mice; settings: 26 mg/kg, IP or PO
[2] = test system: AMES assay and the SOS-chromo-test
[3] = test system: mouse; settings: 50 and 100 mg/kg, IP
[4] = test system: mice; settings: 12.5 and 25 mg/kg, IP in mice
[5] = test system: enzyme system which catalyses breakdown of GABA in the brain; settings: 1 mmole/liter
[6] = test system: mice

For `CC(=O)OCc1cocc2c(C=O)ccc1-2` [baldrinal], the “Metabolic degradation of 14C-methacetin” value [1] is given as “distinctly inhibited” and the Genotoxicity in vitro ([2]; AMES assay and SOS-chromo-test) is given as “direct mutagenic effects”.

For `CC(C)CC(=O)OCc1cocc2c(C=O)ccc1-2` [homobaldrinal], the Genotoxicity in vitro [2] is listed as “direct mutagenic effects”.

In the case of `CC1=C2[C@H](/C=C(\C)C(=O)O)CC[C@@H](C)[C@H]2CC1` [valerenic acid, Valerenic Acid], the “Pentobarbital induced sleeping time” value [3] is listed as “potentiate”, the Picrotoxin induced convulsions [4] is listed as “antagonized” and the “Inhibition of enzyme system which catalyses breakdown of GABA” value [5] is listed as 20%. The Behavioural effects ([6]; 100 mg/kg intraperitoneally, mice) was “decrease in motor activity, a decrease in respiratory rate, absence of righting reflex, ataxia, a decrease of abdominal muscle tone, and a decrease in rotarod performance” and the “Performance on rotarod and traction tests” value ([6]; 100 mg/kg, IP) was “statistical significance”.

For `CC(=O)O[C@@H]1CC(C)=C2[C@H]1[C@H](C)CC[C@H]2/C=C(\C)C(=O)O` [acetoxyvalerenic acid, Acetoxyvalerenic Acid], the “Inhibition of enzyme system which catalyses breakdown of GABA” value [5] is given as 38%.
